From BindingDB's records for doi:10.7270/Q2736PBV (Broad Institute, 2009)

Molecular target: T1, Streptokinase A (Streptococcus pyogenes serotype M1, UniProt P10520)
T1 sequence (P10520 whole entry): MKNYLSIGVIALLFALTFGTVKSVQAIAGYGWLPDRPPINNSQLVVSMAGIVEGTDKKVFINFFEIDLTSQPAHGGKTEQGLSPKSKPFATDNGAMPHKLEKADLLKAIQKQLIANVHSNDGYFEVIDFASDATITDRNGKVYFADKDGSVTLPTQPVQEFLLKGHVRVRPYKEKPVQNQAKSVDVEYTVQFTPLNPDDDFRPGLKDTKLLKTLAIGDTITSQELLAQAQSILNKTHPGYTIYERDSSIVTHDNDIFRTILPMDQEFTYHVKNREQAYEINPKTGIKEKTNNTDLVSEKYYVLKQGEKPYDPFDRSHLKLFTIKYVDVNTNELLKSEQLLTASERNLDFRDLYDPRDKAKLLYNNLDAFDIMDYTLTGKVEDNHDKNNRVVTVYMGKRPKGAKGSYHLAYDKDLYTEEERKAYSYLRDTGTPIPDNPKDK
Test: S. pyogenes streptokinase expression inhibitors, potency, dose response, plasminogen activation absorbance, OD405 (AID 1914)

| SMILES | EC50 |
| --- | --- |
| N#CC(C(=O)CN1CCN(c2ccccc2F)CC1)c1nc(-c2ccccc2)cs1 (configuration not stated) [(2Z)-4-[4-(2-fluorophenyl)piperazin-1-yl]-3-oxidanylidene-2-(4-phenyl-3H-1,3-thiazol-2-ylidene)butanenitrile] | > 150 µM |
| Cc1nc(N=NCc2ccc3c(c2)OCO3)sc1C [(4,5-dimethylthiazol-2-yl)-(piperonylideneamino)amine] | > 150 µM |
| COc1ccc(C(=O)Oc2ccc(C(C)=O)cc2)c(OC)c1 [(4-acetylphenyl) 2,4-dimethoxybenzoate] | > 150 µM |
| Cc1cc(N=NCc2ccc(O)c(C)c2O)nc(-c2ccccc2O)n1 [(4E)-3-hydroxy-2-methyl-4-[[[(2Z)-6-methyl-2-(6-oxo-1-cyclohexa-2,4-dienylidene)-1H-pyrimidin-4-yl]hydrazo]methylidene]-1-cyclohexa-2,5-dienone] | > 150 µM |
| Oc1ccc(CN=Nc2ccc3ccccc3c2)c(O)c1 [(4E)-3-hydroxy-4-[(2-naphthalenylhydrazo)methylidene]-1-cyclohexa-2,5-dienone] | > 150 µM |
| N=C(N)C1=CC(=O)/C(=C/C=c2ccc(=C(N)N)cc2)C=C1 [(4E)-4-[2-[4-[bis(azanyl)methylidene]cyclohexa-2,5-dien-1-ylidene]ethylidene]-3-oxidanylidene-cyclohexa-1,5-diene-1-carboximidamide;2-oxidanylethanesulfonic acid] | 20 µM |
| COc1ccc(C2=N/C(=C\c3c(C)[nH]c4ccccc34)C(=O)O2)cc1 [(4Z)-2-(4-methoxyphenyl)-4-[(2-methyl-1H-indol-3-yl)methylidene]-1,3-oxazol-5-one] | > 150 µM |
| CCCOc1ccc(C(=O)C2C(=O)C(=O)N(c3ccccn3)C2c2ccc(OC)cc2)cc1C (configuration not stated) [(4Z)-4-[hydroxy-(3-methyl-4-propoxyphenyl)methylidene]-5-(4-methoxyphenyl)-1-(2-pyridinyl)pyrrolidine-2,3-dione] | 103 µM |
| C=CCN1C(=O)NC(=O)C(=C(CC)Nc2ccc(N(C)C)cc2)C1=O [(5E)-5-[1-[4-(dimethylamino)anilino]propylidene]-1-prop-2-enyl-1,3-diazinane-2,4,6-trione] | > 150 µM |
| O=C1N=C(Nc2ccc(F)cc2)SC1=Cc1c[nH]c2ccccc12 [(5Z)-2-[(4-fluorophenyl)amino]-5-(1H-indol-3-ylmethylidene)-1,3-thiazol-4-one] | > 150 µM |
| O=[N+]([O-])c1cc(Br)c(O)c(CN=Nc2nnnn2-c2cccc3ccccc23)c1 [(6E)-2-bromo-6-[[2-(1-naphthalen-1-yltetrazol-5-yl)hydrazinyl]methylidene]-4-nitrocyclohexa-2,4-dien-1-one] | > 150 µM |
| COc1cccc(N=NCc2cccc(Br)c2O)c1 [(6E)-2-bromo-6-[[2-(3-methoxyphenyl)hydrazinyl]methylidene]cyclohexa-2,4-dien-1-one] | 19.6 µM |
| COc1cccc(CN=Nc2cc(N3CCOCC3)ncn2)c1O [(6E)-2-methoxy-6-[[N'-(6-morpholinopyrimidin-4-yl)hydrazino]methylene]cyclohexa-2,4-dien-1-one] | > 150 µM |
| CCOc1ccc(CN=Nc2cc(N3CCOCC3)nc(C)n2)c(O)c1 [(6E)-3-ethoxy-6-[[2-(2-methyl-6-morpholin-4-yl-pyrimidin-4-yl)hydrazinyl]methylidene]cyclohexa-2,4-dien-1-one] | > 150 µM |
| COc1cccc(CN=Nc2nc(Nc3ccccc3)nc(-n3nc(C)cc3C)n2)c1O [(6E)-6-[[2-[4-(3,5-dimethylpyrazol-1-yl)-6-phenylazanyl-1,3,5-triazin-2-yl]hydrazinyl]methylidene]-2-methoxy-cyclohexa-2,4-dien-1-one] | > 150 µM |
| CC(=N)C(C#N)C(=O)CSc1nc2cc(Cl)ccc2c(=O)n1Cc1ccco1 (configuration not stated) [(E)-3-amino-2-[2-[7-chloro-3-(furan-2-ylmethyl)-4-oxoquinazolin-2-yl]sulfanylacetyl]but-2-enenitrile] | > 150 µM |
| CC(=N)C(C#N)C(=O)CSc1nc2scc(-c3ccccc3)c2c(=O)n1C (configuration not stated) [(E)-3-azanyl-2-[2-(3-methyl-4-oxidanylidene-5-phenyl-thieno[2,3-d]pyrimidin-2-yl)sulfanylethanoyl]but-2-enenitrile] | > 150 µM |
| Cc1ccc(F)c(NC(=O)C(C#N)C(=O)c2ccc(C(C)(C)C)cc2)c1 (configuration not stated) [(Z)-2-(4-tert-butylphenyl)carbonyl-3-[(2-fluoranyl-5-methyl-phenyl)amino]-3-oxidanyl-prop-2-enenitrile] | > 150 µM |
| Cc1ccc(C(=O)CC(=O)C(=O)NC23CC4CC(CC(C4)C2)C3)cc1 [(Z)-N-(1-adamantyl)-4-hydroxy-4-(4-methylphenyl)-2-oxobut-3-enamide] | > 150 µM |

| SMILES | EC50 |
| --- | --- |
| CCOc1ccc2[nH]c(=O)c(CN(CC3COCCO3)C(=O)C3CC3)cc2c1 (configuration not stated) [MLS000031787] | > 150 µM |
| CC(C)c1oc(NC(=O)Nc2ccc(Cl)c(Cl)c2)nc1O [MLS000053797] | > 150 µM |
| CCCCCCC1=Cc2c/c(=C3/NN=C(c4ccccc4)O3)c(=O)oc2=CC1=O [MLS000068623] | > 150 µM |
| O=C1C2=C3C(=C/C1=C\NNC(=O)c1ccccc1O)CCCN3CCC2 [MLS000332414] | > 150 µM |
| Cc1cc(Br)c(OCc2ccc(C(=O)NN=C3CC4CCC=C34)cc2)c(Br)c1 (configuration not stated) [MLS000335385] | > 150 µM |
| CC(C)CN1C(=O)/C(=N\NC(=O)c2cccc(S(=O)(=O)N3CCCCC3)c2)c2ccccc21 [MLS000417389] | > 150 µM |
| CCCCCCCCOC(=O)C1C(C)=Nc2nnnn2C1c1cccs1 (configuration not stated) [MLS000519969] | 50 µM |
| CC(NNC(=O)c1ccccc1O)=C1C(=O)c2ccccc2C1=O [MLS000523164] | > 150 µM |
| Clc1ccc(-c2ccc(CN=Nc3cc(N4CCOCC4)nc(N4CCOCC4)n3)o2)cc1 [MLS000527145] | > 150 µM |
| O=C1C=CC(N=Nc2ccc([N+](=O)[O-])cc2)C(O)=C1 (configuration not stated) [MLS000530152] | 50 µM |
| O=C1C([N+](=O)[O-])=CC(Cl)=CC1CN=Nc1ccccn1 (configuration not stated) [MLS000539830] | 11.1 µM |
| O=NC(c1ccc(Cl)cc1Cl)c1ncc(C(F)(F)F)cc1Cl (configuration not stated) [MLS000540015] | 35.2 µM |
| Cc1ccc(-n2c(=O)c3[nH][nH]n(CC(=O)N4N=C(c5cccc6ccccc56)CC4c4ccccc4)c=3c2=O)cc1 (configuration not stated) [MLS000546672] | 35.7 µM |
| CC(C)(C)C1CCC2=C(C#N)C(=N)C(C#N)(C#N)C(c3cccs3)C2C1 (configuration not stated) [MLS000552642] | 25.7 µM |
| c1csc(CN=Nc2ncnc3sc4c(c23)CCC4)c1 [MLS000571423] | > 150 µM |
| N#CC1C(=N)OC2=C(CCc3ccccc32)C1c1ccccc1Cl (configuration not stated) [MLS000586146] | 11.9 µM |
| COc1ccc(C2C(C(=O)c3ccccc3)C(C)=Nc3nc4ccccc4n32)c(OC)c1 (configuration not stated) [MLS000586747] | > 150 µM |
| COc1ccc(CN=Nc2cc(C)nc(-n3nc(C)cc3C)n2)c(OC)c1 [MLS000589396] | > 150 µM |
| O=C(O)c1ccc(N=NCc2ccc(OC(=O)c3ccccc3Cl)cc2)cc1 [MLS000589715] | > 150 µM |

| SMILES | EC50 |
| --- | --- |
| C=Nc1c(N(C(C)=O)c2ccc(Br)cc2)c(O)c2ccccc2c1O [MLS000700612] | 23.9 µM |
| CC(C)C(N=Nc1ccccc1[N+](=O)[O-])c1ccccc1 (configuration not stated) [MLS000712651] | 18.4 µM |
| Oc1ccc(Br)cc1CN=Nc1nc(N2CCCCC2)nc(N2CCOCC2)n1 [MLS000713264] | 33.6 µM |
| CCOC(=O)c1ccc(NC(=O)Cc2sc(N=NCc3c[nH]c4ccccc34)nc2O)cc1 [MLS000722052] | > 150 µM |
| CC(N=Nc1ccc(C(=O)O)cc1)c1ccc2c(c1)Nc1ccccc1S2 (configuration not stated) [MLS000759774] | > 150 µM |
| Cc1ccc(NC(=S)N/N=C2\C(=O)Nc3ccccc32)cc1 [MLS000760038] | > 150 µM |
| Cc1[nH]n(-c2nc3ccccc3[nH]2)c(=O)c1Cc1ccccc1 [MLS000762809] | > 150 µM |
| CCCCCCC(=O)NNC=C1C(=O)NC(=S)N(CCCC)C1=O [MLS000763126] | > 150 µM |
| O=C1N=C(Nc2ccccc2)SC1=Cc1c[nH]c2ccccc12 [MLS000766635] | > 150 µM |
| COC1=CC(CN=Nc2nc3ccccc3s2)C=C([N+](=O)[O-])C1=O (configuration not stated) [MLS000777866] | > 150 µM |
| O=C1N=c2ccccc2=C1NNC(=S)N1CCOCC1 [MLS000778251] | > 150 µM |
| CCCOc1ccc(C2C(C(=O)c3cc4ccccc4o3)C(=O)C(=O)N2c2cc(C)on2)cc1OC (configuration not stated) [MLS001142810] | > 150 µM |
| Cc1ccc(C2C(C(=O)c3cc4ccccc4o3)C(=O)C(=O)N2c2cc(C)on2)cc1 (configuration not stated) [MLS001147776] | 6.3 µM |
| N#CC(C(=O)CCl)c1nc2c(s1)CCc1ccccc1-2 (configuration not stated) [MLS001171530] | > 150 µM |
| O=C(Nc1nnc(-c2ccc(Br)cc2)o1)c1cccc(-n2c(O)ccc2O)c1 [MLS001235111] | > 150 µM |
| COC(=O)/N=N/C=C1\C=[N+]([O-])c2ccccc2N1O [MLS001333201] | > 150 µM |
| COc1ccc(CN=Nc2nc(Nc3ccccc3)nc(N3CCCCC3)n2)cc1OC [N2-[(3,4-dimethoxyphenyl)methylideneamino]-N4-phenyl-6-piperidin-1-yl-1,3,5-triazine-2,4-diamine] | > 150 µM |
| O=C1C([N+](=O)[O-])=CC(Cl)=CC1/C=N/NC(=O)C(O)(c1ccccc1)c1ccccc1 (configuration not stated) [N''''-[(E)-(3-chloro-5-nitro-6-oxocyclohexa-2,4-dien-1-ylidene)methyl]-2-hydroxy-2,2-diphenylacetohydrazide] | > 150 µM |
| COC1=CC([N+](=O)[O-])=CC(/C=N/NC(=O)C(C)Nc2cccc(C)c2)C1=O (configuration not stated) [N'-[(1E)-(2-hydroxy-3-methoxy-5-nitrophenyl)methylene]-2-[(3-methylphenyl)amino]propanohydrazide] | > 150 µM |
